According to patent publication US20250230193A1, “CYCLIC COMPOUND HAVING SELECTIVE KRAS INHIBITORY EFFECT ON HRAS AND NRAS” (CHUGAI SEIYAKU KABUSHIKI KAISHA, priority 2022, published 2025):

Columns and labels:
[1] = target: GDP-bound HRAS wild-type protein (Homo sapiens, UniProt P01112); assay: Binding to HRAS by surface plasmon resonance (SPR), Single Cycle Kinetics; settings: KD ratio, GDP-bound HRAS wild-type vs GDP-bound KRAS wild-type, SPR
[2] = target: GDP-bound NRAS wild-type protein (Homo sapiens, UniProt P01111); assay: Binding to NRAS by surface plasmon resonance (SPR), Single Cycle Kinetics; settings: KD ratio, GDP-bound NRAS wild-type vs GDP-bound KRAS wild-type, SPR
Sequence of GDP-bound NRAS wild-type protein (P01111 whole entry): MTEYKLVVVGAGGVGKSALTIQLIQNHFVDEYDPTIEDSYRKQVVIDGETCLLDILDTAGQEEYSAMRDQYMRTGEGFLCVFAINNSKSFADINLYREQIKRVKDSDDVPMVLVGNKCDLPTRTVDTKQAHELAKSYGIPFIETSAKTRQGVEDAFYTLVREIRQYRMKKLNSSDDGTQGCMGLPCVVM

Sequence of GDP-bound HRAS wild-type protein (P01112 whole entry): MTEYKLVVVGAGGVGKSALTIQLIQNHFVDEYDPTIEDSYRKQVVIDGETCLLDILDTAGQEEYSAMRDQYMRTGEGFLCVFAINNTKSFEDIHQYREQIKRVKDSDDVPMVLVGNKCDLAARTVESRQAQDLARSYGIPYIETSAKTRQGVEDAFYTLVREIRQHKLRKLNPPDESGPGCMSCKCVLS

SMILES	HRAS/KRAS (ratio of KD value for HRAS to KD value for KRAS) [1]	NRAS/KRAS (ratio of KD value for NRAS to KD value for KRAS) [2]
CCC[C@H]1C(=O)N[C@@H]([C@@H](C)CC)C(=O)N(C)CC(=O)N(C)[C@H]2C/C=C\CCN(C2=O)[C@@H](Cc2ccc(C)cc2)C(=O)N(C)CC(=O)N[C@@H](CCc2cc(F)c(C(F)(F)F)c(F)c2)C(=O)N2C[C@H](OCC)C[C@H]2C(=O)N(C)C2(CCC2)C(=O)N(C)[C@@H](C2CCCC2)C(=O)N(C)[C@H](C(=O)N(C)C)CC(=O)N1C [PP1793]	B (a compound having 3 or more and less than 10 is denoted as B)	A (a compound having 10 or more and less than 20 is denoted as A)
CCC[C@H]1C(=O)N[C@@H]([C@@H](C)CC)C(=O)N(C)CC(=O)N(C)[C@H]2C/C=C\CCN(C2=O)[C@@H](Cc2ccc(C)cc2)C(=O)N(C)CC(=O)N[C@@H](CCc2cc(F)c(C(F)(F)F)c(F)c2)C(=O)N2CCC[C@H]2C(=O)N(C)C2(CCC2)C(=O)N(C)[C@@H](C2CCCC2)C(=O)N(C)[C@H](C(=O)N(C)C)CC(=O)N1C [PP1794]	B (a compound having 3 or more and less than 10 is denoted as B)	A (a compound having 10 or more and less than 20 is denoted as A)
CCO[C@@H]1C[C@H]2C(=O)N(C)C3(CCC3)C(=O)N(C)[C@@H](C3CCCC3)C(=O)N(C)[C@H](C(=O)N(C)C)CC(=O)N(C)[C@@H](CC3CC3)C(=O)N[C@@H]([C@@H](C)CC)C(=O)N(C)CC(=O)N(C)[C@H]3C/C=C\CCN(C3=O)[C@@H](Cc3ccc(C)cc3)C(=O)N(C)CC(=O)N[C@@H](CCc3cc(F)c(C(F)(F)F)c(F)c3)C(=O)N2C1 [PP1795]	B (a compound having 3 or more and less than 10 is denoted as B)	A (a compound having 10 or more and less than 20 is denoted as A)
CC[C@H](C)[C@@H]1NC(=O)[C@H](CC2CC2)N(C)C(=O)C[C@@H](C(=O)N(C)C)N(C)C(=O)[C@H](C2CCCC2)N(C)C(=O)C2(CCC2)N(C)C(=O)[C@@H]2CCCN2C(=O)[C@H](CCc2cc(F)c(C(F)(F)F)c(F)c2)NC(=O)CN(C)C(=O)[C@H](Cc2ccc(C)cc2)N2CC/C=C\C[C@@H](C2=O)N(C)C(=O)CN(C)C1=O [PP1796]	B (a compound having 3 or more and less than 10 is denoted as B)	A (a compound having 10 or more and less than 20 is denoted as A)
CCO[C@@H]1C[C@H]2C(=O)N(C)C3(CCC3)C(=O)N(C)[C@@H](C3CCCC3)C(=O)N(C)[C@H](C(=O)N(C)C)CC(=O)N(C)[C@@H](CC3CC3)C(=O)N[C@@H]([C@@H](C)CC)C(=O)N3CCC[C@H]3C(=O)N(C)[C@H]3C/C=C\CCN(C3=O)[C@@H](Cc3ccc(C)cc3)C(=O)N(C)CC(=O)N[C@@H](CCc3cc(F)c(C(F)(F)F)c(F)c3)C(=O)N2C1 [PP1797]	A (a compound having 10 or more and less than 20 is denoted as A)	A (a compound having 10 or more and less than 20 is denoted as A)
CC[C@H](C)[C@@H]1NC(=O)[C@H](CC2CC2)N(C)C(=O)C[C@@H](C(=O)N(C)C)N(C)C(=O)[C@H](C2CCCC2)N(C)C(=O)C2(CCC2)N(C)C(=O)[C@@H]2CCCN2C(=O)[C@H](CCc2cc(F)c(C(F)(F)F)c(F)c2)NC(=O)CN(C)C(=O)[C@H](Cc2ccc(C)cc2)N2CC/C=C\C[C@@H](C2=O)N(C)C(=O)[C@@H]2CCCN2C1=O [PP1798]	B (a compound having 3 or more and less than 10 is denoted as B)	A (a compound having 10 or more and less than 20 is denoted as A)
CCC[C@H]1C(=O)N[C@@H]([C@@H](C)CC)C(=O)N(C)CC(=O)N(C)[C@H]2C/C=C\CCN(C2=O)[C@@H](Cc2ccc(C)cc2)C(=O)N(C)CC(=O)N[C@@H](CCc2cc(F)c(C(F)(F)F)c(F)c2)C(=O)N2C[C@H](C)C[C@H]2C(=O)N(C)C2(CCC2)C(=O)N(C)[C@@H](C2CCCC2)C(=O)N(C)[C@H](C(=O)N(C)C)CC(=O)N1C [PP1799]	B (a compound having 3 or more and less than 10 is denoted as B)	B (a compound having 3 or more and less than 10 is denoted as B)
CC[C@H](C)[C@@H]1NC(=O)[C@H](CC2CC2)N(C)C(=O)C[C@@H](C(=O)N(C)C)N(C)C(=O)[C@H](C2CCCC2)N(C)C(=O)C2(CCC2)N(C)C(=O)[C@@H]2C[C@@H](C)CN2C(=O)[C@H](CCc2cc(F)c(C(F)(F)F)c(F)c2)NC(=O)CN(C)C(=O)[C@H](Cc2ccc(C)cc2)N2CC/C=C\C[C@@H](C2=O)N(C)C(=O)CN(C)C1=O [PP1800]	A (a compound having 10 or more and less than 20 is denoted as A)	A (a compound having 10 or more and less than 20 is denoted as A)
CC[C@H](C)[C@@H]1NC(=O)[C@H](CC2CC2)N(C)C(=O)C[C@@H](C(=O)N(C)C)N(C)C(=O)[C@H](C2CCCC2)N(C)C(=O)C2(CCC2)N(C)C(=O)[C@@H]2C[C@@H](C)CN2C(=O)[C@H](CCc2cc(F)c(C(F)(F)F)c(F)c2)NC(=O)CN(C)C(=O)[C@H](Cc2ccc(C)cc2)N2CC/C=C\C[C@@H](C2=O)N(C)C(=O)[C@@H]2CCCN2C1=O [PP1801]	B (a compound having 3 or more and less than 10 is denoted as B)	A (a compound having 10 or more and less than 20 is denoted as A)
CC[C@H](C)[C@@H]1NC(=O)[C@H](CC2CCC2)N(C)C(=O)C[C@@H](C(=O)N(C)C)N(C)C(=O)[C@H](C2CCCC2)N(C)C(=O)C2(CCC2)N(C)C(=O)[C@@H]2CCCN2C(=O)[C@H](CCc2cc(F)c(C(F)(F)F)c(F)c2)NC(=O)CN(C)C(=O)[C@H](Cc2ccc(C)cc2)N2CC/C=C\C[C@@H](C2=O)N(C)C(=O)CN(C)C1=O [PP1802]	B (a compound having 3 or more and less than 10 is denoted as B)	A (a compound having 10 or more and less than 20 is denoted as A)
CC[C@H](C)[C@@H]1NC(=O)[C@H](CC2CCC2)N(C)C(=O)C[C@@H](C(=O)N(C)C)N(C)C(=O)[C@H](C2CCCC2)N(C)C(=O)C2(CCC2)N(C)C(=O)[C@@H]2C[C@@H](C)CN2C(=O)[C@H](CCc2cc(F)c(C(F)(F)F)c(F)c2)NC(=O)CN(C)C(=O)[C@H](Cc2ccc(C)cc2)N2CC/C=C\C[C@@H](C2=O)N(C)C(=O)CN(C)C1=O [PP1803]	B (a compound having 3 or more and less than 10 is denoted as B)	A (a compound having 10 or more and less than 20 is denoted as A)
CCO[C@@H]1C[C@H]2C(=O)N(C)C3(CCCC3)C(=O)N(C)[C@@H](C3CCCC3)C(=O)N(C)[C@H](C(=O)N(C)C)CC(=O)N(C)[C@@H](CC)C(=O)N[C@@H]([C@@H](C)CC)C(=O)N(C)CC(=O)N(C)[C@H]3C/C=C\CCN(C3=O)[C@@H](Cc3ccc(C(F)(F)F)cc3)C(=O)N(C)CC(=O)N[C@@H](CCc3cc(F)c(C(F)(F)F)c(F)c3)C(=O)N2C1 [PP1804]	A (a compound having 10 or more and less than 20 is denoted as A)	A (a compound having 10 or more and less than 20 is denoted as A)
CC[C@H](C)[C@@H]1NC(=O)[C@H](CC)N(C)C(=O)C[C@@H](C(=O)N(C)C)N(C)C(=O)[C@H](C2CCCC2)N(C)C(=O)C2(CCCC2)N(C)C(=O)[C@@H]2CCCN2C(=O)[C@H](CCc2cc(F)c(C(F)(F)F)c(F)c2)NC(=O)CN(C)C(=O)[C@H](Cc2ccc(C(F)(F)F)cc2)N2CC/C=C\C[C@@H](C2=O)N(C)C(=O)CN(C)C1=O [PP1805]	A (a compound having 10 or more and less than 20 is denoted as A)	A (a compound having 10 or more and less than 20 is denoted as A)
CCO[C@@H]1C[C@H]2C(=O)N(C)C3(CCCC3)C(=O)N(C)[C@@H](C3CCCC3)C(=O)N(C)[C@H](C(=O)N(C)C)CC(=O)N(C)[C@@H](CC)C(=O)N[C@@H]([C@@H](C)CC)C(=O)N(C)CC(=O)N(C)[C@H]3C/C=C\CCN(C3=O)[C@@H](Cc3ccc(C)cc3)C(=O)N(C)CC(=O)N[C@@H](CCc3cc(F)c(C(F)(F)F)c(F)c3)C(=O)N2C1 [PP1806]	B (a compound having 3 or more and less than 10 is denoted as B)	A (a compound having 10 or more and less than 20 is denoted as A)
CC[C@H](C)[C@@H]1NC(=O)[C@H](CC)N(C)C(=O)C[C@@H](C(=O)N(C)C)N(C)C(=O)[C@H](C2CCCC2)N(C)C(=O)C2(CCCC2)N(C)C(=O)[C@@H]2CCCN2C(=O)[C@H](CCc2cc(F)c(C(F)(F)F)c(F)c2)NC(=O)CN(C)C(=O)[C@H](Cc2ccc(C)cc2)N2CC/C=C\C[C@@H](C2=O)N(C)C(=O)CN(C)C1=O [PP1807]	B (a compound having 3 or more and less than 10 is denoted as B)	A (a compound having 10 or more and less than 20 is denoted as A)
CCO[C@@H]1C[C@H]2C(=O)N(C)C3(CCCC3)C(=O)N(C)[C@@H](C3CCCC3)C(=O)N(C)[C@H](C(=O)N(C)C)CC(=O)N(C)[C@@H](C3CC3)C(=O)N[C@@H]([C@@H](C)CC)C(=O)N(C)CC(=O)N(C)[C@H]3C/C=C\CCN(C3=O)[C@@H](Cc3ccc(C)cc3)C(=O)N(C)CC(=O)N[C@@H](CCc3cc(F)c(C(F)(F)F)c(F)c3)C(=O)N2C1 [PP1808]	B (a compound having 3 or more and less than 10 is denoted as B)	A (a compound having 10 or more and less than 20 is denoted as A)
